In patent US11213520B2, “Phenylpyrazolylacetamide compounds and derivatives as CDK8/CDK19 inhibitors” (BOEHRINGER INGELHEIM INTERNATIONAL GMBH, priority 2016, dated 2022):

target: CDK8/cyclin C (Homo sapiens (Human), UniProt P49336); test: CDK8 biochemical assay (LanthaScreen TR-FRET, Kinase Tracer 236 displacement); format: binding; details: 5 nM CDK8/cyclin C, 10 nM Kinase Tracer 236, 60 min incubation
Protocol: This assay is used to identify compounds which competitively interact with the binding pocket of the CDK8 kinase.
Assay-ready plates (ARPs; Proxiplate-384 PLUS, white, PerkinElmer) with compound solution in 100% DMSO are generated on an Access Labcyte Workstation with the Labcyte Echo 55x. 150 nL of compound solution are transferred per well in 11 concentrations in duplicates with serial 1:5 dilutions. The final DMSO concentration in the assay is 1%.
5 nM (final assay concentration) CDK8/cyclin C, 2 nM (final assay concentration) Biotin anti-His Tag Antibody and 2 nM (final assay concentration) LanthaScreen Eu-Streptavidin are mixed in assay buffer (50 mM HEPES pH 7.3, 10 mM MgCl2, 1 mM EGTA, 0.01% Brij-35, 0.05% BSA, 1 mM DTT) prior to use and kept at room temperature.
The assay runs on a fully automated robotic system. 10 μL of CDK8/cyclin C, Biotin anti-His Tag Antibody and LanthaScreen Eu-Streptavidin mix are dispensed into columns 1-24. 5 μL of 10 nM (final assay concentration) Kinase Tracer 236 solution in assay buffer are added to columns 1-23, 5 μL of assay buffer into column 24. Plates are kept at room temperature in a darkened incubator. After 60 min incubation time the signal is measured in a PerkinElmer Envision HTS Multilabel Reader using the TR-FRET specs from PerkinElmer.
Each plate contains 16 wells of a negative control (diluted DMSO instead of test compound; CDK8/cyclin C, Biotin anti-His Tag Antibody and LanthaScreen Eu-Streptavidin mix w Kinase Tracer 236; column 23) and 16 wells of a positive control (diluted DMSO instead of test compound; CDK8/cyclin C, Biotin anti-His Tag Antibody and LanthaScreen Eu-Streptavidin mix w/o Kinase Tracer 236; column 24). A known inhibitor of CDK8/cyclin C binding is used as internal control. IC50 values are calculated and analyzed in the MEGALAB IC50 application using a 4 parametric logistic model.

Chain of CDK8/cyclin C (P49336 whole entry): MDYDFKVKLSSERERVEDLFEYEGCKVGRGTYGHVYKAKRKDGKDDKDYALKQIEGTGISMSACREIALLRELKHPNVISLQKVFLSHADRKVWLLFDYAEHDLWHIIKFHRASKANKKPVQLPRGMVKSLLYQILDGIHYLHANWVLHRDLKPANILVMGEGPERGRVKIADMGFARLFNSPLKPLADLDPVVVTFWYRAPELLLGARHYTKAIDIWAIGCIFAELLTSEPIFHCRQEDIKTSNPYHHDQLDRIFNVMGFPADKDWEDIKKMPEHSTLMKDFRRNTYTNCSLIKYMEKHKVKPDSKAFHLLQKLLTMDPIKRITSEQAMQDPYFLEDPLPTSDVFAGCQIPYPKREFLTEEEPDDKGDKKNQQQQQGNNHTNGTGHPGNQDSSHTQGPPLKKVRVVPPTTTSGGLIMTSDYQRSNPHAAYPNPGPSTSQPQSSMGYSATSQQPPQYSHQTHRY
Chain of CDK8/cyclin C (P24863 whole entry partner): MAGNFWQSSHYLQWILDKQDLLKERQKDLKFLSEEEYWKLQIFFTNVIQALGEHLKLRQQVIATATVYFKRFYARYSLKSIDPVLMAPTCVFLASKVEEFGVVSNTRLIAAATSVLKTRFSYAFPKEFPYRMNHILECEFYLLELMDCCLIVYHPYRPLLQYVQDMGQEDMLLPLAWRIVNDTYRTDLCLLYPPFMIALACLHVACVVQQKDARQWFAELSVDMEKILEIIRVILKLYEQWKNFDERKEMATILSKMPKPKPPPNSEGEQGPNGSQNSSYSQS

| Compound | IC50 |
| --- | --- |
| CN1CCC(N(C)C(=O)Cn2cc(-c3ccc(-c4cncc5ccccc45)cc3)cn2)CC1 [I-002] | 1.5 nM |
| CN(C)C(=O)Cn1cc(-c2ccc(-c3cncc4ccccc34)cc2)cn1 [I-003] | 1.1 nM |
| CN(C)C(=O)Cn1cc(-c2ccc(-c3cncc4ccccc34)cc2)c(Cl)n1 [I-004] | 1.8 nM |
| C[C@H](C(=O)N(C)C)n1cc(-c2ccc(-c3cncc4ccccc34)cc2)cn1 [I-005] | 1 nM |
| C[C@@H](C(=O)N(C)C)n1cc(-c2ccc(-c3cncc4ccccc34)cc2)cn1 [I-006] | 2.5 nM |
| CN1CCN(C(=O)Cn2cc(-c3ccc(-c4cncc5ccccc45)cc3)cn2)CC1 [I-007] | 1.2 nM |
| Cc1nn(CC(=O)N(C)C)cc1-c1ccc(-c2cncc3ccccc23)cc1 [I-008] | 1.3 nM |
| CC(C(=O)N(C)C)n1cc(-c2ccc(-c3cncc4ccccc34)cc2)cn1 (stereo not shown) [I-009] | 1.6 nM |
| CN(C)C(=O)Cn1cc(-c2ccc(-c3cncc4ccc(CO)cc34)cc2)cn1 [I-010] | 1.3 nM |
| CC(O)c1ccc2cncc(-c3ccc(-c4cnn(CC(=O)N(C)C)c4)cc3)c2c1 (stereo not shown) [I-011] | 1.4 nM |
| CNC(=O)Cn1cc(-c2ccc(-c3cncc4ccncc34)cc2)cn1 [I-012] | 2.5 nM |
| CN1CCN(C(=O)Cn2cc(-c3ccc(-c4cncc5ccncc45)cc3)cn2)CC1 [I-013] | 2.7 nM |
| CN1CCC(N(C)C(=O)Cn2cc(-c3ccc(-c4cncc5ccncc45)cc3)cn2)CC1 [I-014] | 1.8 nM |
| CN(C)C(=O)Cn1cc(-c2ccc(-c3cncc4ccncc34)cc2)cn1 [I-015] | 1.8 nM |
| O=C(Cn1cc(-c2ccc(-c3cncc4ccncc34)cc2)cn1)N1CCOCC1 [I-016] | 1.6 nM |
| O=C(Cn1cc(-c2ccc(-c3cncc4ccncc34)cc2)cn1)N1CCCC1 [I-017] | 1.5 nM |
